According to patent USRE48461E1, “Modulation of androgen receptor expression” (Ionis Pharmaceuticals, Inc., priority 2012, dated 2021):

Key:
Format in all cases: cell-based, human
[1] = tested on: 22RV1 cells; assay: 22RV1 cell proliferation (Example 32); conditions: 22RV1 cells, complete medium, 5 days
Protocol: After a treatment period of 5 days in complete medium, the proliferative capacity of the cancer cells was measured with using CellTiter 96® AQueous One or CellTiter-Glo® Solution Cell Proliferation kit (Promega), following the manufacturer's instructions. […] Treatment with ISIS oligonucleotides in CSS+DHT medium reduced the proliferative capacity to a greater extent than treatment with MVD-3100. The proliferative capacity of cells cultured in CSS medium without DHT is 12% of untreated control levels.

[2] = tested on: VCaP cells; assay: VCaP cell proliferation; conditions: VCaP cells, 5 days
Protocol: After a treatment period of 5 days in complete medium or CSS+1 nM DHT medium, the proliferative capacity of the cancer cells was measured with using CellTiter 96® AQueous One or CellTiter-Glo® Solution Cell Proliferation kit (Promega), following the manufacturer's instructions. […] Treatment with ISIS oligonucleotides in CSS+DHT medium reduced the proliferative capacity to a greater extent than treatment with MVD-3100. The proliferative capacity of cells cultured in CSS medium without DHT is 12% of untreated control levels.

[3] = tested on: 22RV1 cells; assay: 22RV1 cell proliferation with/without DHT (MTT); conditions: RNAiMAX, 5 days
Protocol: 22RV1cells were plated at 1,500 cells per well. […] Separate sets of cells, also treated with each of the antisense oligonucleotides, were treated with DHT added on day 1 at a final concentration of 1 nM. After a treatment period of 5 days, the proliferative ability of the cancer cells was measured using the standard MTT assay. Results are presented in Table 69 as percent inhibition of proliferation, relative to non-treated cells.

[4] = tested on: TMPRSS2 mRNA; assay: Time-course TMPRSS2 expression in C4-2B cells
Protocol: (§1) C4-2B cells were plated at 1,000 cells per well in complete medium. […] ISIS 549148 was included as a negative control. […] After a treatment period of 8 hours, 24 hours, and 48 hours, AR expression was measured with primer probe set hAR-LTS00943. Results are presented in Tables 70-72 as percent expression of AR, relative to non-treated cells.
(§2) Expression analysis of prostate-specific antigen (PSA) and TMPRSS2 were also analyzed. Results are presented in Tables 73-75 as percent inhibition of PSA expression and Tables 76-78 as percent inhibition of TMPRSS2 expression, relative to non-treated cells.

[5] = tested on: prostate-specific antigen (PSA) mRNA; assay: Time-course PSA expression in C4-2B cells
Protocol: as §1, §2

[6] = tested on: 22RV1 cells; assay: 22RV1 apoptosis (Caspase-glo 3/7); conditions: 22RV1 cells, 72 hours
Protocol: After a treatment period of 72 hours in complete medium or CSS+DHT medium, apoptosis of the cancer cells was measured with Caspase-glo 3/7 assay kit (Promega). Results are presented in Tables 131 and 132 as percent apoptosis of the cells, relative to non-treated cells.

[7] = tested on: TMPRSS2 mRNA; assay: TMPRSS2 expression in C4-2B cells (Example 30); conditions: 48 hrs
Protocol: (§3) Cells were plated at 1,000 cells per well. […] ISIS 549148 was included as a negative control. […] After an incubation period of 48 hrs, RNA levels of AR, PSA and TMPRSS2 were measured.
(§4) Cells were plated at 2,000 cells per well and cultured in CSS media with 1 nM DHT. […] ISIS 549148 was included as a negative control. […] After an incubation period of 48 hrs, RNA levels of AR, PSA and TMPRSS2 were measured. In the absence of DHT, AR expression in C4-2 cells was 188%, PSA expression was 43% and TMPRSS2 expression was 27% compared to the untreated control.

[8] = tested on: PSA mRNA; assay: PSA expression in C4-2B cells (Example 30); conditions: 48 hrs
Protocol: as §3, §4

GGCTACTACGCCGTCA (3-10-3 (S)-cEt gapmer, chemistry not fully specified) [ISIS 549148, reference compound]
Proliferation (% untreated control) ([1]; 1.34 nM): 97 % untreated control
Proliferation (% untreated control) ([1]; 4.0 nM): 97 % untreated control
Proliferation (% untreated control) ([1]; 13.4 nM): 101 % untreated control
Proliferation (% untreated control) ([1]; 40 nM): 83 % untreated control
Proliferation (% untreated control) ([2]; CSS + DHT medium, 1.34 nM): 114 % untreated control
Proliferation (% untreated control) ([2]; CSS + DHT medium, 4.0 nM): 123 % untreated control
Proliferation (% untreated control) ([2]; CSS + DHT medium, 13.4 nM): 104 % untreated control
Proliferation (% untreated control) ([2]; CSS + DHT medium, 40 nM): 92 % untreated control
Proliferation (% untreated control) ([2]; complete medium, 1.34 nM): 98 % untreated control
Proliferation (% untreated control) ([2]; complete medium, 4.0 nM): 98 % untreated control
Proliferation (% untreated control) ([2]; complete medium, 13.4 nM): 113 % untreated control
Proliferation (% untreated control) ([2]; complete medium, 40 nM): 106 % untreated control
Percent inhibition of 22RV1 cell proliferation ([3]; +DHT (1 nM), ASO 1.34 nM): 0%
Percent inhibition of 22RV1 cell proliferation ([3]; +DHT (1 nM), ASO 4.0 nM): 0%
Percent inhibition of 22RV1 cell proliferation ([3]; +DHT (1 nM), ASO 13.4 nM): 3%
Percent inhibition of 22RV1 cell proliferation ([3]; +DHT (1 nM), ASO 40.0 nM): 0%
Percent inhibition of 22RV1 cell proliferation ([3]; −DHT, ASO 1.34 nM): 0%
Percent inhibition of 22RV1 cell proliferation ([3]; −DHT, ASO 4.0 nM): 0%
Percent inhibition of 22RV1 cell proliferation ([3]; −DHT, ASO 13.4 nM): 4%
Percent inhibition of 22RV1 cell proliferation ([3]; −DHT, ASO 40.0 nM): 0%
Percent inhibition of TMPRSS2 expression compared to the control group in 8 hours ([4]; 0.04 μM): 5%
Percent inhibition of TMPRSS2 expression compared to the control group in 24 hours ([4]; 0.04 μM): 29%
Percent inhibition of TMPRSS2 expression compared to the control group in 48 hours ([4]; 0.04 μM): 0%
Percent inhibition of TMPRSS2 expression compared to the control group in 8 hours ([4]; 0.2 μM): 0%
Percent inhibition of TMPRSS2 expression compared to the control group in 24 hours ([4]; 0.2 μM): 10%
Percent inhibition of TMPRSS2 expression compared to the control group in 48 hours ([4]; 0.2 μM): 4%
Percent inhibition of TMPRSS2 expression compared to the control group in 8 hours ([4]; 1 μM): 0%
Percent inhibition of TMPRSS2 expression compared to the control group in 24 hours ([4]; 1 μM): 29%
Percent inhibition of TMPRSS2 expression compared to the control group in 48 hours ([4]; 1 μM): 0%
Percent inhibition of TMPRSS2 expression compared to the control group in 8 hours ([4]; 5.0 μM): 0%
Percent inhibition of TMPRSS2 expression compared to the control group in 24 hours ([4]; 5.0 μM): 10%
Percent inhibition of TMPRSS2 expression compared to the control group in 48 hours ([4]; 5.0 μM): 0%
Percent inhibition of PSA expression compared to the control group in 8 hours ([5]; 0.04 μM): 1%
Percent inhibition of PSA expression compared to the control group in 24 hours ([5]; 0.04 μM): 22%
Percent inhibition of PSA expression compared to the control group in 48 hours ([5]; 0.04 μM): 2%
Percent inhibition of PSA expression compared to the control group in 8 hours ([5]; 0.2 μM): 8%
Percent inhibition of PSA expression compared to the control group in 24 hours ([5]; 0.2 μM): 13%
Percent inhibition of PSA expression compared to the control group in 48 hours ([5]; 0.2 μM): 0%
Percent inhibition of PSA expression compared to the control group in 8 hours ([5]; 1 μM): 8%
Percent inhibition of PSA expression compared to the control group in 24 hours ([5]; 1 μM): 16%
Percent inhibition of PSA expression compared to the control group in 48 hours ([5]; 1 μM): 18%
Percent inhibition of PSA expression compared to the control group in 8 hours ([5]; 5.0 μM): 0%
Percent inhibition of PSA expression compared to the control group in 24 hours ([5]; 5.0 μM): 6%
Percent inhibition of PSA expression compared to the control group in 48 hours ([5]; 5.0 μM): 10%
Apoptosis (% untreated control) ([6]; CSS + DHT medium, 1.34 nM): 113 % untreated control
Apoptosis (% untreated control) ([6]; CSS + DHT medium, 4.0 nM): 94 % untreated control
Apoptosis (% untreated control) ([6]; CSS + DHT medium, 13.4 nM): 102 % untreated control
Apoptosis (% untreated control) ([6]; CSS + DHT medium, 40 nM): 108 % untreated control
Apoptosis (% untreated control) ([6]; complete medium, 1.34 nM): 81 % untreated control
Apoptosis (% untreated control) ([6]; complete medium, 4.0 nM): 76 % untreated control
Apoptosis (% untreated control) ([6]; complete medium, 13.4 nM): 72 % untreated control
Apoptosis (% untreated control) ([6]; complete medium, 40 nM): 123 % untreated control
Percent inhibition of TMPRSS2 expression ([7]; CSS + DHT medium, 0.04 μM): 0%
Percent inhibition of TMPRSS2 expression ([7]; CSS + DHT medium, 0.2 μM): 0%
Percent inhibition of TMPRSS2 expression ([7]; CSS + DHT medium, 1 μM): 0%
Percent inhibition of TMPRSS2 expression ([7]; CSS + DHT medium, 5.0 μM): 3%
Percent inhibition of TMPRSS2 expression ([7]; complete medium, 0.04 μM): 0%
Percent inhibition of TMPRSS2 expression ([7]; complete medium, 0.2 μM): 2%
Percent inhibition of TMPRSS2 expression ([7]; complete medium, 1 μM): 4%
Percent inhibition of TMPRSS2 expression ([7]; complete medium, 5.0 μM): 0%
Percent inhibition of PSA expression ([8]; CSS + DHT medium, 0.04 μM): 0%
Percent inhibition of PSA expression ([8]; CSS + DHT medium, 0.2 μM): 0%
Percent inhibition of PSA expression ([8]; CSS + DHT medium, 1 μM): 0%
Percent inhibition of PSA expression ([8]; CSS + DHT medium, 5.0 μM): 0%
Percent inhibition of PSA expression ([8]; complete medium, 0.04 μM): 3%
Percent inhibition of PSA expression ([8]; complete medium, 0.2 μM): 11%
Percent inhibition of PSA expression ([8]; complete medium, 1 μM): 18%
Percent inhibition of PSA expression ([8]; complete medium, 5.0 μM): 14%
